From US20160312311A1, “MARKERS FOR ISOCITRATE DEHYDROGENASE INHIBITORS” (NOVARTIS AG, priority 2013, published 2016)

What was measured:
Format in all cases: cell-based
HCT116 IDH1/2 WT cells = assay: H3K9me2 Western blot after exogenous 2-HG treatment; conditions: 10 mM 2-HG or 1 mM Cell-Permeable 2-HG for about 30 days
Method: In order to evaluate the effect of IDH1 mutations, IDH2 mutations and 2-HG on H3K9me2, HCT116 colorectal cells that were engineered to endogenously express various clinically relevant mutations in IDH1 or IDH2 (Horizon Discovery, Cambridge, UK) were assayed for changes in H3K9me2 levels. […] HCT116 IDH1/2 WT cells were also exogenously treated with 10 mM 2-HG or 1 mM Cell-Permeable 2-HG for about 30 days. All cells were grown in McCoy's 5A Media (Life Technologies, Carlsbad, Calif.) containing 10% Fetal Bovine Serum (Hyclone, Logan, Utah). At least 10^6 cells per line were harvested and subject to a Histone Acid Extraction® Protocol (Abcam, Cambridge, Mass.). Cells in culture were rinsed with PBS and detached using 0.25% trypsin. Trypsin was deactivated using fresh media and the sample was spun down at 1000 rpm for 5 minutes. Media was aspirated and samples were kept at −80° C. until ready for processing.
Cells were washed twice in ice-cold PBS supplemented with 5 mM sodium butyrate (Sigma-Aldrich, St. Louis Mo.). Cells were then resuspended in Triton Extraction Buffer (TEB: PBS containing 0.5% TritonX 100(v/v), 2 mM phenylmethylsulfonyl fluoride (PMSF), 0.02% (w/v) sodium azide) also supplemented with 5 mM sodium butyrate at density of 10^7 cells per mL. […] Histone extracts were subsequently quantified using a detergent compatible (“DC”) protein assay kit (BioRad, Hercules, Calif.). […]

[1] = test system: SW1353 chondrosarcoma cells (IDH2-R172S/WT); assay: H3K9me2 Western blot in IDH2 mutant SW1353 cells upon IDH2 knockdown; conditions: SW1353 stable lines, doxycycline 100 ng/mL, 6 days
Method: SW1353 chondrosarcoma cells (ATCC HTB-94) contain an activating mutation in IDH2 (IDH2-R172S/WT). These cells were cultured in RPM-1640 (Life Technologies, Carlsbad, Calif.) supplemented with 1% sodium pyruvate and 10% Tet-Free fetal bovine serum. IDH2 shRNAs were cloned into pLKO-Tet-ON-puromycin vectors. All shRNAs were validated to give sufficient knockdown of target as judged by RNA, protein, and reduced 2-HG production.
Lentiviral particles were produced by co-transfecting the shRNA plasmid of interest with packaging plasmids Δ8.9 and VSVG into 293T cells using Transit293® transfection reagent (Mirus, Madison, Wis.). Lentiviral supernatants were then used to spin-infect HT-1080 cells in the presence of 8 μg/mL polybrene. Cells recovered overnight in fresh medium and were then selected and continually cultured in appropriate antibiotics.
SW1353 stable lines were cultured with and without doxycycline (100 ng/mL final concentration) for 6 days in the absence of selection. At day 6, cells were lifted using trypsin and histones were extracted as previously described.
Histone extracts were prepared with NuPAGE® 4×LDS Sample Buffer (Life Technologies, Carlsbad, Calif.) and heated to 70° C. for 10 minutes. Samples were run on NuPage® Novex 4-12% Bis-Tris gel (Life Technologies, Carlsbad, Calif.) using MES buffer (Life Technologies, Carlsbad, Calif.). […]

SW1353 cells = assay: Histone profiling by LC-MS/MS, IDH2 shRNA vs. non-targeting control shRNA; conditions: doxycycline 100 ng/mL, 6 days, vs. shNTC
Method: Also profiled were three endogenously mutant cell lines upon modulation of the target by chemical or genetic means in order to evaluate other lysine methylation marks. We used histone acid extracts (as described in Example 1) from HT1080 and SNU1079 cells treated with 3 μM compound 162 or DMSO control for 6 days, as well as SW1353 cells that have been induced (100 ng/mL doxycycline) with IDH2 specific shRNA (shIDH2-891 or shNTC) for 6 days. Histones were further enriched with ActiveMotif® Histone purification mini kit (ActiveMotif Inc., Carlsbad, Calif.)
The purified histones were desalted by off line reversed phase chromatography on an 1200 Agilent tower (Agilent, Santa Clara, Calif.) using a Jupiter® 5 μm C4 300 Å Column 150×2 mm (Phenomenex, Torrance, Calif.). The resulting peak area was used to estimate concentration against the peak area of histones of known concentration. The desalted histones were lyophilyzed prior to lysine derivatization. […]
The data obtained via mass spectrometry was interpreted using Mascot Distiller® (Matrix Science, Boston, Mass.) for identification followed by manual verification. The peak area obtained from the data acquired was processed using Skyline Software® (v1.4.0.422 University of Washington, Seattle, Wash.) for quantitation of the peptides bearing post translational modifications.

Row | Compound | H3K9me2 levels (Western blot, FIG. 1B) (HCT116 IDH1/2 WT cells) | H3K9me2 methylation level (Western blot, FIG. 3) [1] | H3K9me0 level, change from control (mass spectrometry, FIG. 7) (SW1353 cells) | H3K9me2 level, change from control (mass spectrometry, FIG. 7) (SW1353 cells)
1 | O=C(O)CCC(O)C(=O)O (centres unmarked) [2-HG, 2-hydroxyglutarate] | sufficient to increase H3K9me2 levels |  |  | 
2 | shIDH2-309: IDH2 specific shRNA, 5′ GTGGACATCCAGCTAAAGTAT 3′ (SEQ ID NO: 9) |  | H3K9me2 methylation level is reduced |  | 
3 | shIDH2-891: IDH2 specific shRNA, 5′ ATCTTTGACAAGCACTATAAG 3′ (SEQ ID NO: 10) |  | H3K9me2 methylation level is reduced | H3K9me0 level increases | H3K9me2 level reduction
